Experimental data: patent US9611286B2, “Ruthenium carbon monoxide releasing molecules and uses thereof” (Alfama, Inc., priority 2011, dated 2017)

Key:
[1] = Determination of CO in tissues; assay type: in vivo; details: one hour after i.v. administration, non-infected mice
Method: It is hypothesized that Compound 1 promotes/increases erythrophagocytosis.
CO was quantified in different tissues as previously described (see, e.g., Vreman et al., Anal Biochem (2005) 341:280-289). Briefly, CO was liberated as gas in a closed vial by adding 25 μL of water and 5 μL of sulfosalicylic acid (SSA, 30% [wt/vol]) to 30 μL of diluted sample after being homogenized. The vials were incubated on ice for at least 10 min before being analyzed. The gas in the headspace of the vials was analyzed quantitatively with a gas chromatograph (GC) equipped with a reducing-compound photometry detector (RCP detector) (Peak Laboratories, Mountain View, Calif.), which allows to quantify CO in gas at concentrations as low as 1-2 parts per billion (ppb). The amount of CO was calculated using a calibration curve prepared from CO standards. Briefly, blood was collected from the tail of the mice to capillary tubes (VWR) with heparin (100 i.u./ml in PBS 1×; LEO Pharma Inc.), transferred into AVOXimeter 4000 cuvettes (ITC) where the levels of carboxyhemoglobin (COHb), oxyhemoglobin (O2Hb) and methemoglobin (MetHb) were measured in a portable AVOXimeter 4000 CO-oximeter (ITC). Results are shown as mean percentage of total hemoglobin species in circulation.

P. falciparum 3D7 = experiment: In vitro replication of P. falciparum 3D7; assay type: cell-based, Plasmodium falciparum; details: 48 h
Method: The data led the inventors to wonder whether Compound 1 could have a direct anti-parasitic effect on P. berghei ANKA and P. falciparum parasites. To this end, the effect of Compound 1 and the anti-malarial chloroquine (CQ) was monitored on the in vitro replication of P. falciparum 3D7 isolate and P. berghei ANKA for 48 h and 24 h, respectively.

[2] = BBB disruption by Evans blue accumulation in brain parenchyma; assay type: in vivo, C57BL/6 mice; details: when control mice showed signs of ECM
CD8β = experiment: CD8-β-chain mRNA expression in brain by qRT-PCR; assay type: in vivo, C57BL/6 mice
Method: (§1) Mice were sacrificed, when infected control mice presented signs of ECM, and perfused intracardially with PBS to remove circulating RBC and leukocytes from the organs. RNA was isolated from brains, livers and lungs using Trizol Reagent (Invitrogen, Life technologies), according to the manufacturer's recommendation. The synthesis of the first-strand cDNA from the RNA templates was carried out using the Transcriptor First Strand cDNA Synthesis Kit (Roche). RT-PCR reactions were performed in the presence of SYBER Green (SYBER Green PCR master mix, Applied Biosystems) on an ABI PRISM 7500Fast (Applied Biosystem). Oligonucleotides used for the specific amplification of genes include:
(§2) The relative changes in gene expression between experimental and control groups were calculated by the Pfaffl method using hprt as internal control gene. Statistical Analysis

IFN-γ = IFN-γ mRNA expression in brain by qRT-PCR; assay type: in vivo, C57BL/6 mice
Method: as §1, §2

VEGF = VEGF protein levels in plasma (ELISA), M-AALI model; assay type: in vivo; details: infected DBA/2 mice
Method: Mouse VEGF in plasma samples was determined using a commercial ELISA kit (R&D Systems) following the manufacturer's instructions. The group classification was only performed by the end of each experiment after determining the cause of death.

C[SH]([C@@H]1OC(CO)[C@H](O)[C@H](O)C1O)[Ru]([Cl])([Cl])([CH]=O)([CH]=O)[CH]=O (stereo partly drawn) [Compound 1, Tricarbonyldichloro(methylthiogalactopyranoside) Ru(II)]
levels of CO in organs [1]: higher levels of CO in the liver and spleen
inhibition of in vitro growth (P. falciparum 3D7): does not inhibit in vitro growth
BBB disruption [2]: did not show any evidence of BBB disruption
CD8-β-chain mRNA expression in the brain vs Compound 2-treated mice (CD8β): significantly lower
IFN-γ mRNA expression vs infected Compound 2-treated mice (IFN-γ): reduced
VEGF levels in plasma (VEGF): significantly lower
